Earlier results in patent US8529954B2, “Composition based on gamma-hydroxybutyric acid” (Debregeas et Associes Pharma, priority 2008, dated 2013).
Where a name gives a salt, the structure may show the parent alone.

Tests used:
[1] = approximately

Structure (SMILES) | stability in an acidic environment | maximum peak after its administration (time of peak) ([1]; absorbed by the gastroenteric system) [min] | half life [1] [min] | time in which it is eliminated [1] [h]
O=C(O)CCCO [GHB, Gamma-hydroxybutyric acid] | unstable |  |  | 
O=C(O)CCCO [sodium hydroxybutyrate, sodium salt of 4-hydroxybutyric acid] |  | 30 to 45 | 20 to 25 | 4 to 5
